Data as given in US20120270237A9, “METHODS FOR THE IDENTIFICATION OF KINASE INTERACTING MOLECULES AND FOR THE PURIFICATION OF KINASE PROTEINS” (Cellzone AG, priority 2009, published 2012).

Assays:
AMPKa1 = AMPKa1 (Homo sapiens, UniProt Q13131); experiment: Kinobeads competition binding, HL60 cell lysate; design: endogenous in cells; host or cells: HL60 cells; details: 10 μM free compound
Protocol: (§1) To one aliquot of cell lysate 10 μM of the free compound (FIG. 3, CZC31326) was added and allowed to bind to proteins in the lysate. Then the affinity matrix with the immobilized compound (Example 1) was added to capture proteins that were not interacting with the previously added free compound. Beads were separated from the lysate and bead bound proteins were eluted in SDS sample buffer and subsequently separated by SDS-Polyacrylamide gel electrophoresis (FIG. 4). Suitable gel bands were cut out and subjected to in-gel proteolytic digestion with trypsin. The second lysate aliquot was processed identically, however no free compound was added (DMSO solvent control). Peptides originating from samples 1 and 2 were labeled with iTRAQ reagents (iTRAQ 114 and iTRAQ 117) and the combined samples were analyzed with a nano-flow liquid chromatography system coupled online to a tandem mass spectrometer (LC-MS/MS) experiment followed by iTRAQ reporter ion quantification in the MS/MS spectra (Ross et al., 2004. Mol. Cell. Proteomics 3(12):1154-1169). Further experimental protocols can be found in WO2006/134056 and a previous publication (Bantscheff et al., 2007. Nature Biotechnology 25, 1035-1044). Sepharose-beads with the immobilized compound (100 μl beads per pull-down experiment) were equilibrated in lysis buffer and incubated with a cell lysate sample containing 50 mg of protein on an end-over-end shaker (Roto Shake Genie, Scientific Industries Inc.) for 2 hours at 4° C. Beads were collected, transferred to Mobicol-columns (MoBiTech 10055) and washed with 10 ml lysis buffer containing 0.4% NP40 detergent, followed by 5 ml lysis buffer containing 0.2% detergent. To elute bound proteins, 60 μl 2×SDS sample buffer was added to the column. The column was incubated for 30 minutes at 50° C. and the eluate was transferred to a siliconized microfuge tube by centrifugation. Proteins were then alkylated with 108 mM iodoacetamid. Proteins were then separated by SDS-Polyacrylamide electrophoresis (SDS-PAGE). The peptide extracts of samples treated with 10 μM of free compound (CZC31326) and the solvent control (0.5% DMSO) were treated with different variants of the isobaric tagging reagent (iTRAQ Reagents Multiplex Kit, part number 4352135, Applied Biosystems, Foster City, Calif., USA). The iTRAQ reagents are a set of multiplexed, amine-specific, stable isotope reagents that can label peptides on amino groups in up to four different biological samples enabling simultaneous identification and quantitation of peptides. The iTRAQ reagents were used according to instructions provided by the manufacturer. The samples were resuspended in 10 μl 50 mM TEAB solution, pH 8.5 and 10 μl ethanol were added. The iTRAQ reagent was dissolved in 120 μl ethanol and 10 μl of reagent solution were added to the sample. The labeling reaction was performed at room temperature for one hour on a horizontal shaker and stopped by adding 5 μl of 100 mM TEAB and 100 mM glycine in water. The two labeled sampled were then combined, dried in a vacuum centrifuge and resuspended in 10 μl of 0.1% formic acid in water. Relative protein quantitation was performed using peak areas of iTRAQ reporter ion signals essentially as described in an earlier publication (Bantscheff et al., 2007. Nature Biotechnology 25, 1035-1044).

AurA = molecular target: T1, AurA (Homo sapiens, UniProt O14965); experiment: Kinobeads competition binding, HL60 cell lysate; design: endogenous in cells; host or cells: HL60 cells; details: 10 μM free compound
T1 sequence (O14965 1-403): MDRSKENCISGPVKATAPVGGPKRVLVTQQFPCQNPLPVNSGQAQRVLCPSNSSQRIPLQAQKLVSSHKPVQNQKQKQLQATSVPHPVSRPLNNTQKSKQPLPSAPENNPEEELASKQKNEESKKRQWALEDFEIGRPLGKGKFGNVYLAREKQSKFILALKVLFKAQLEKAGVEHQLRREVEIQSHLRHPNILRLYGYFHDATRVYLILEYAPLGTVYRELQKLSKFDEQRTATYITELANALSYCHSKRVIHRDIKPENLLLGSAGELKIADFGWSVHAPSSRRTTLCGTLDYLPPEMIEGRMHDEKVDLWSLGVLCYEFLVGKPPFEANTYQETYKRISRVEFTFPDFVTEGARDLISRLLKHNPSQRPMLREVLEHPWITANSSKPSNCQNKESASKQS
Protocol: as §1

CDK5 = CDK5 (Homo sapiens, UniProt Q00535); experiment: Kinobeads competition binding, HL60 cell lysate; design: endogenous in cells; host or cells: HL60 cells; details: 10 μM free compound
CDK5, sequence (Q00535 whole entry): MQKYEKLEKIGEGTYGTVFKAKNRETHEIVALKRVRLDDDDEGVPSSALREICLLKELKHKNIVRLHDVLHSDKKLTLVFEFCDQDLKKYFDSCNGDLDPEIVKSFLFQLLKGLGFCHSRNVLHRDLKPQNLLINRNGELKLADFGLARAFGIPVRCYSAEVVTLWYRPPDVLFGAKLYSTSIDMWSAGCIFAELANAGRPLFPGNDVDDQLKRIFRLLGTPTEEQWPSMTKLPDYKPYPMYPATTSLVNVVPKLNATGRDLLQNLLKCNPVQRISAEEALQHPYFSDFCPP
Protocol: as §1

CHK1 = CHK1 (Homo sapiens, UniProt O14757); experiment: Kinobeads competition binding, HL60 cell lysate; design: endogenous in cells; host or cells: HL60 cells; details: 10 μM free compound
CHK1, sequence (O14757 whole entry): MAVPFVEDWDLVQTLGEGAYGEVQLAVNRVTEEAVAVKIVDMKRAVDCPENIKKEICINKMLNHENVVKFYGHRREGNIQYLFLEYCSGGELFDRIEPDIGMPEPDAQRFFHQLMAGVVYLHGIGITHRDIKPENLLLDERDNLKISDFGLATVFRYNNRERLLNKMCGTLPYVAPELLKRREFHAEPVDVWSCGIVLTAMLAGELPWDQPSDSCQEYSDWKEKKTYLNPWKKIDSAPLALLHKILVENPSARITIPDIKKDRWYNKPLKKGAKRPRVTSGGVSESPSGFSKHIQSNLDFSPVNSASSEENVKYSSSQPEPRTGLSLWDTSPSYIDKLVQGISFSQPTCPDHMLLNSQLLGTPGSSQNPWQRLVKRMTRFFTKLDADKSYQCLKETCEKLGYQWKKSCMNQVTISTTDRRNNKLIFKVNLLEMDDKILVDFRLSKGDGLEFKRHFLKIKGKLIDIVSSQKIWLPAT
Protocol: as §1

QIK = QIK (Homo sapiens, UniProt Q9H0K1); experiment: Kinobeads competition binding, HL60 cell lysate; design: endogenous in cells; host or cells: HL60 cells; details: 10 μM free compound
QIK, sequence (Q9H0K1 whole entry): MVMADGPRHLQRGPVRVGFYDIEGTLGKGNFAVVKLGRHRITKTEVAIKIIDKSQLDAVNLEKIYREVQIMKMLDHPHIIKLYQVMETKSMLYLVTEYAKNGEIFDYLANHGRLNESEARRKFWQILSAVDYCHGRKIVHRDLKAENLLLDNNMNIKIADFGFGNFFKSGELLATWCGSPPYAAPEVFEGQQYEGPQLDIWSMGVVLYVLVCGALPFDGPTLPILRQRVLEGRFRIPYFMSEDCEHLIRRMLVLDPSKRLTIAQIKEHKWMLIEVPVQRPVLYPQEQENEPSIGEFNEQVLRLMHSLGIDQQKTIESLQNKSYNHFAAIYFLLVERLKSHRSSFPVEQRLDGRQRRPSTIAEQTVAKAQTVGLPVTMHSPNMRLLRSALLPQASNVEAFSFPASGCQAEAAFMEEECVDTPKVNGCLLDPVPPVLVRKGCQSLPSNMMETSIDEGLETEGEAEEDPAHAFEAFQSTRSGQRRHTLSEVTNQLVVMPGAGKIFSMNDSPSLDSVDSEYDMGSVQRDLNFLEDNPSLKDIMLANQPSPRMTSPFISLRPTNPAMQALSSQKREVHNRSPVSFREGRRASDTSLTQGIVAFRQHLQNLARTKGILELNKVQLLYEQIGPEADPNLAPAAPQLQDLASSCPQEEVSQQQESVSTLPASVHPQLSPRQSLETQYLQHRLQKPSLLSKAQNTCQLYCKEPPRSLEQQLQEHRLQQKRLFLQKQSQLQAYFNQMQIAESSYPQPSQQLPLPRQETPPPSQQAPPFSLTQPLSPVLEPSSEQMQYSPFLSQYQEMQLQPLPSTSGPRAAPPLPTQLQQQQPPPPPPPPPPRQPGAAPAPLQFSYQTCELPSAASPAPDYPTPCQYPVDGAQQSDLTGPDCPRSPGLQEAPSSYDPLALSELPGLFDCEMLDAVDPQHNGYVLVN
Protocol: as §1

IRE1 = IRE1 (Homo sapiens, UniProt O75460); experiment: Kinobeads competition binding, L-363 cell lysate; design: Identified kinases with CZC31326 from L-363 cell lysate; endogenous in cells; host or cells: L-363 (MG132-treated); details: 10 μM free compound, L-363 lysate
IRE1, sequence (O75460 19-977): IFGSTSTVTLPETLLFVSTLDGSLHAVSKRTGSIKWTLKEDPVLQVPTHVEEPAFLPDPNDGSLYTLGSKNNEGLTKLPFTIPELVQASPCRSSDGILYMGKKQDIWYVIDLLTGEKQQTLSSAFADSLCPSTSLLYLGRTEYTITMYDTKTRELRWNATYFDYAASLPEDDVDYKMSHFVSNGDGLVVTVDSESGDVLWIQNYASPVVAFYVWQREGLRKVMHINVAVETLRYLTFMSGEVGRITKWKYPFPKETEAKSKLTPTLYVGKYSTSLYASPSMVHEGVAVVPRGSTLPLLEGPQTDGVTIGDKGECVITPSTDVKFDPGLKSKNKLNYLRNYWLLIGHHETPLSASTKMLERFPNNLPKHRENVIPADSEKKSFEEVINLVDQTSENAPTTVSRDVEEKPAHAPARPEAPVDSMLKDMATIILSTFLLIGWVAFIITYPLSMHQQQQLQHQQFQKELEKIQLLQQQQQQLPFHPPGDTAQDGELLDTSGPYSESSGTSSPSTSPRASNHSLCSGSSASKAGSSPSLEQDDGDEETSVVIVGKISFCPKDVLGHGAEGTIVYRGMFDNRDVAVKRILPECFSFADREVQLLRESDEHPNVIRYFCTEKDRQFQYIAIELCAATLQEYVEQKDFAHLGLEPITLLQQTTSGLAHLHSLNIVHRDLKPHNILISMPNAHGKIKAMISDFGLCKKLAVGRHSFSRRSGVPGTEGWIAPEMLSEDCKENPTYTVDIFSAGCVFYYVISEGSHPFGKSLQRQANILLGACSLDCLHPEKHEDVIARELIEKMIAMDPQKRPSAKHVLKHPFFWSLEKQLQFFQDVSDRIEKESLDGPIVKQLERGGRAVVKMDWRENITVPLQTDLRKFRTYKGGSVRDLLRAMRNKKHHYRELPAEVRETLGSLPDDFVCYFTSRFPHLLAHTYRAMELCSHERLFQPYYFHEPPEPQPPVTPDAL
Protocol: (§2) To one aliquot of cell lysate 10 μM of the free compound (FIG. 3, CZC31326) was added and allowed to bind to proteins in the lysate. Then the affinity matrix with the immobilized compound was added to capture proteins that were not interacting with the previously added free compound. Beads were separated from the lysate and bead bound proteins were eluted in SDS sample buffer and subsequently separated by SDS-Polyacrylamide gel electrophoresis (FIG. 8). Suitable gel bands were cut out and subjected to in-gel proteolytic digestion with trypsin. The second lysate aliquot was processed identically, however no free compound was added (DMSO solvent control). Peptides originating from samples 1 and 2 were labeled with iTRAQ reagents (iTRAQ 114 and iTRAQ 117) and the combined samples were analyzed with a nano-flow liquid chromatography system coupled online to a tandem mass spectrometer (LC-MS/MS) experiment followed by iTRAQ reporter ion quantification in the MS/MS spectra as described in Example 2.
(§3) For this experiment the human plasma cell leukaemia line L-363 was used (German Collection of Microorganisms and Cell Cultures, DSMZ number ACC49, Braunschweig, Germany). Cells were treated for three hours with 20 μM of the proteasome inhibitor MG132 (Z-Leu-Leu-Leu-al, Sigma C2211) prior to cell harvesting.

JAK2 = JAK2 (Homo sapiens, UniProt O60674); experiment: Kinobeads competition binding, L-363 cell lysate; design: Identified kinases with CZC31326 from L-363 cell lysate; endogenous in cells; host or cells: L-363 (MG132-treated); details: 10 μM free compound, L-363 lysate
JAK2, sequence (O60674 whole entry): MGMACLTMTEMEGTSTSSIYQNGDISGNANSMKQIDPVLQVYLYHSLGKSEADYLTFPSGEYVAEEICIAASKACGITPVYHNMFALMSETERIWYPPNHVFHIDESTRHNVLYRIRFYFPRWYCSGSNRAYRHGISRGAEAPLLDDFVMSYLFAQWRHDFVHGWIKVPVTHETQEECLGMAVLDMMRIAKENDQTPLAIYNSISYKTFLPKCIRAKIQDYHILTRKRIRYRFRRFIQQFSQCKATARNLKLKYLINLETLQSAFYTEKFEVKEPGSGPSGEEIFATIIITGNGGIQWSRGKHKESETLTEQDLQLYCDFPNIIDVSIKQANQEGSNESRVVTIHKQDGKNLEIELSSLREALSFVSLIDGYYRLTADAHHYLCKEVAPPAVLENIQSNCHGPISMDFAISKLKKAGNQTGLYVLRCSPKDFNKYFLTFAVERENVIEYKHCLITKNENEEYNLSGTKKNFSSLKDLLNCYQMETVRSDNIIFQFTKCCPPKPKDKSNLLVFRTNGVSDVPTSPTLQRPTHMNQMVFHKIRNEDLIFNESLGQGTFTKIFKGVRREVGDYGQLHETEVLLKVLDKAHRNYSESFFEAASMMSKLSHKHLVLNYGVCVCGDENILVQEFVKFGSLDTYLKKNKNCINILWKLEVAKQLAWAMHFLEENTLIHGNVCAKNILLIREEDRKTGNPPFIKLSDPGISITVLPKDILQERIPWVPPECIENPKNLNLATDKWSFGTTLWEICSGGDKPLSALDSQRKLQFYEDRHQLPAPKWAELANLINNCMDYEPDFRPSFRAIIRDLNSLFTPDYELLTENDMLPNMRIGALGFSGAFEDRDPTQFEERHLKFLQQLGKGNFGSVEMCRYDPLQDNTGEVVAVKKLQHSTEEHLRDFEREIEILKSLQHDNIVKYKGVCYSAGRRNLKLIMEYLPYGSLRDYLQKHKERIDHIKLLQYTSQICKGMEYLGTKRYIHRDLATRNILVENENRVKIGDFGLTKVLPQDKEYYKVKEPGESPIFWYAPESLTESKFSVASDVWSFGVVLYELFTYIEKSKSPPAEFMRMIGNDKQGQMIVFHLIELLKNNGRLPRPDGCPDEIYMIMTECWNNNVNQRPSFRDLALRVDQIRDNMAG
Protocol: as §2, §3

AMPKa1, sequence (Q13131 whole entry): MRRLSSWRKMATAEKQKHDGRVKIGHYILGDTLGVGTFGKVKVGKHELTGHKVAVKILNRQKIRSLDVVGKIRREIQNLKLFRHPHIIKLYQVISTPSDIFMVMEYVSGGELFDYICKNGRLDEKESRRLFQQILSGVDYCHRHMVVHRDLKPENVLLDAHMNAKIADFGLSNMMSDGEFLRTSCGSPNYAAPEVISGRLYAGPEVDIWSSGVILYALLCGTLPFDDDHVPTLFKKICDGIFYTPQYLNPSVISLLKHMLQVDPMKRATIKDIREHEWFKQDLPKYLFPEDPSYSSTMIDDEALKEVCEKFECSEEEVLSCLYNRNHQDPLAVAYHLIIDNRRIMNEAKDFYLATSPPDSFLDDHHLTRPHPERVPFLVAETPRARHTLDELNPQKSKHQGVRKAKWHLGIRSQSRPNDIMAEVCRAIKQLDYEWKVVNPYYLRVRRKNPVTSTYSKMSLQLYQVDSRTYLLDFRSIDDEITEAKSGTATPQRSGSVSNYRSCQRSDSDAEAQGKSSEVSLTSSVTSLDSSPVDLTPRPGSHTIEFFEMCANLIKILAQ
AMPKa1, sequence (Q9Y478 2-270 partner limits assumed): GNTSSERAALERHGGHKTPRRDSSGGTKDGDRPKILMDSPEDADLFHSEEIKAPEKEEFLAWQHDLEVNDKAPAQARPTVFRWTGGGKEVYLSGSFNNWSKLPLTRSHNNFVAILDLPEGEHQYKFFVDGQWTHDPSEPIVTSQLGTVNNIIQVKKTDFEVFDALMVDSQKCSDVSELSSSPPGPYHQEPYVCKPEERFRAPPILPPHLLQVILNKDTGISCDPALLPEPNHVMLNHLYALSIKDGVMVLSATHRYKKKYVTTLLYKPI
AMPKa1, sequence (P54619 whole entry partner): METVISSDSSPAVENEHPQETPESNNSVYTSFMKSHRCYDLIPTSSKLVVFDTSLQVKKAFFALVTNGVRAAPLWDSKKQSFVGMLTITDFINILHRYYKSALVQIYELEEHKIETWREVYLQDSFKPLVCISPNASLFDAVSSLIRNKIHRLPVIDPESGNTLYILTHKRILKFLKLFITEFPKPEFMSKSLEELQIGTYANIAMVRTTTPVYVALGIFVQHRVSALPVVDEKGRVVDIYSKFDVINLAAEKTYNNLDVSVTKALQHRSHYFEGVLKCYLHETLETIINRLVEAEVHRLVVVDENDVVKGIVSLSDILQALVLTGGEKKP

CS(=O)(=O)Nc1ccccc1Nc1nc(Nc2cccc(OCCN)c2)ncc1Cl [CZC31326, N-(2-(2-(3-(2-aminoethoxy)phenylamino)-5-chloropyrimidin-4-ylamino)phenyl)methanesulfonamide]
inhibition at 10 µM (AMPKa1): 97.7%
inhibition at 10 µM (AurA): 96.6%
inhibition at 10 µM (CDK5): 95.2%
Competition % (CHK1): 95.7%
inhibition at 10 µM (QIK): 94.2%
inhibition at 10 µM (IRE1): 97.9%
Competition % (JAK2): 96.1%
